Measurements taken from article PMC6326163, “Choline Is an Intracellular Messenger Linking Extracellular Stimuli to IP3-Evoked Ca^2+ Signals through Sigma-1 Receptors” (Cell Reports, 2019).
Where two headings read alike, the source gives them in different places.

Molecular target: T1, Sigma-1 receptor (Sig-1R) (Homo sapiens, UniProt Q99720)
T1 construct: gene SIGMAR1; human Sig-1R-GFP stably expressed in Neuro-2A cell membranes
Assay: [3H](+)-pentazocine competition radioligand binding, membranes

T1 sequence (Q99720 whole entry): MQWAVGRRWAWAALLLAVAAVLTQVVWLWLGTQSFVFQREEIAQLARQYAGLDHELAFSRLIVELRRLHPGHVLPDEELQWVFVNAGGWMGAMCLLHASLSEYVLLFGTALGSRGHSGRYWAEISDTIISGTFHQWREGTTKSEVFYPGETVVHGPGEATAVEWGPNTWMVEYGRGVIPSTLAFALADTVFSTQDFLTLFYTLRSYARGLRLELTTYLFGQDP

Ki (read-out: Ki) [µM]	SMILES	Ki [µM]
	C[N+](C)(C)CCO [Choline]	525
~12000	CC(=O)OCC[N+](C)(C)C [acetylcholine]	
1320	C[N+](C)(C)CC(=O)O [betaine]	
